Data on eleven compounds can be found in US20250288583A1, “Treatment of Mucus Hypersecretion” (priority 2024, published 2025).

The test system of test [1] is nasal cavity. In words: Nebulizer screening of TRPM8 agonists for sensations in the nasal cavity. The format is in vivo, human. The following applies: NasoNeb nebulizer; for Sensory effects after delivery into the nasal cavity: 3 to 5 sec per nostril. The method, then:
Formulations for nebulization with NasoNeb® used a standard recipe of (Table 8): 1% of the active ingredient (1 to 10 mg/mL), 2% Tween 80 (Polysorbate 80), 1 to 5% ethanol, and made up to 100% with water. The mixture is centrifuged in a FlackTek, Inc., Speedmixer for at least 10 min at 3000 rpm. The Speedmixer spins the sample in 3 dimensions. The result is a white homogeneous liquid suspension with some of the solids now dissolved. For dosing, ˜2 to 3 mL is loaded into the canister of the nebulizer. The nebulizer nozzle tip is placed in the nostril and activated by pressing a button for 3 to 5 sec using a clock timer. […] For D-Ala-OiPr a 5-sec activation will deliver 2*0.73 mL*2 mg/ml, or a total dose of 3 mg per nose. The nasal cavity is relatively tolerant to exogenous agents with irritant properties, as many rinses are used for rhinitis and sinusitis. For some p-menthanecarboxamide analogs, a 2% (20 mg/mL) solution is possible and contemplated. An ideal agent reproduces a comfortable cooling or sensations of negative heat flux in the nasal cavity. […] Heat flux refers to the rate of heat transfer per unit area. The sinonasal cavity mucosa differs from philtrum skin and ocular margins in histology, so the choice of the right molecule must be made by experiment. The TRPM8 agonists were chosen for screening using a nebulizer for delivery. The NasoNeb system is powerful and effective for the OMC (FIG. 3). The delivery time per nostril in three to five seconds. […] These parameters were estimated in the initial trials: • Onset and offset of cooling sensations in the nasal cavity. • The intensity and quality of the cooling sensations in the nasal cavity. • Presence of effects such as sneezing or cough after dosing. • Degree of nasal stuffiness on a scale of 0 to 5. • Degree of rhinorrhea and phlegm in nasal secretions. • Questions regarding comfort and sleep at night.

In test [2] the test system is philtrum skin. Kind of test: Cooling duration bioassay on philtrum skin. It counts as in vivo, human. An excerpt:
(§1) FIG. 1. Comparison of cooling duration of various p-menthanecarboxamide analogs on philtrum skin versus ocular margins. The philtrum skin is keratinized, but the ocular margins are not. The test substances numbered 1 to 11 are: D-Ala-OiPr, Gly-OiPr, D-Ala-OEt, D-Ala-OMe, D-Ala-GlynPr, GlynPr, D-Ala-OnBu, GlynBu, GlyOEt, L-Ala-OEt, and N-Me-D-Ala-OEt, respectively. Two outliers (1 and 2) were identified as preferred embodiments because they preferentially cool the ocular margins. The nasal cavity surfaces like the ocular margins are not keratinized.
(§2) Cooling agents have been assayed in various ways depending on intended use. For example, for the skin the test substance can be applied on philtrum skin, using descriptions of coolness on a scale of 0 to 3. For the ocular surface, the active ingredient can be applied to the closed eyelids using a wipe. In the oral cavity, drug applications are on the posterior dorsal surface of the tongue. For the oropharyngeal surface, the cooling agent may be applied as an orally disintegrating tablet. The ability of a cooling agent to antagonize a noxious stimuli may also be tested, using nociception from citric acid or chili pepper sauce. Responses are usually measured using a Visual Analog Scale with a numerical rating. For nasal responses, however, such procedures have not been standardized. Some endpoints to consider are open and comfortable breathing, the presence or absence of sniffles, and the secretion of phlegm.

For test [3], the system named is ocular margins. Kind of test: Cooling duration bioassay on eyelids/ocular margins. The format is in vivo, human. As to conditions: for Eyelids/Ocular Surface: Table 6, cooling duration, non-keratinized.
Source text: as §1, §2

Test [4] relates to oral cavity. Kind of test: Chili-pepper sauce test (oral cavity). The format is in vivo, human. Also noted: scale not given here. As to conditions: Table 6; grades 0, +, ++ without key.
Source text: as §2

The subject of test [5] is ostiomeatal complex. In words: Case studies: nebulized cooling agent in subjects with rhinitis and rhinosinusitis. The following applies: NasoNeb delivery in subjects with rhinosinusitis. It counts as in vivo, human. An excerpt: Eight subjects with rhinitis and rhinosinusitis volunteered to test cooling agents delivered with the NasoNeb® nebulizer (FIG. 3). The results were clear, robust, and evident. No statistical analysis was necessary. In a 3 to 5-day course of nebulization t.i.d., all subjects reported the ability to manage and control stuffed-up breathing in their activities. All reported comfortable sleep. The sounds of sniffling and congestion of the nose (“sniffles”), snorting, or gurgling were still present, but to a lesser degree. The subject felt it was easier to blow out liquids from the nasal cavity onto a tissue, and the volume and frequency of blowing decreased. Viscous yellow mucus was less in volume and density. The number of wipes deposited daily into a waste basket decreased by >50%. The subjects-were cheerful and enthusiastic because nasal discomfort was under control. As one subject remarked: “The stuffed-up nose problem is now history!” Severat of these cases are reported below as “Case Studies.”
The subject was given a NasoNeb® nebulizer (unavailable in China) and five individual bottles containing 15 mL of a 1% GlyOiPr solution (suspended in 2% Tween 80, 5% ethanol, and 92% water). They were shown how to load the NasoNeb canister with about 2 mL of liquid and activate the device for a 3-second dose into each nostril. The recommended dosage was three times a day, starting in the morning and at about 6-hour intervals, and for five days.
The subject agreed to using the NasoNeb nebulizer with a cooling agent. They were given a NasoNeb nebulizer and three bottles, each containing 15 ml of a 1% GlyOiPr solution (suspended in 2% Tween 80, 5% ethanol, and 92% water). They were shown how to load the NasoNeb canister with about 2 mL of liquid and activate the device for a 3-second dose into each nostril. The recommended dosage was three times a day, starting in the morning and at about 6-hour intervals, and for five days. After a 5-day trial, the subject noted a significant improvement in sleep and comfortable breathing. […] Their headaches were gone, and their appetite improved. They were advised to continue using the Nebulizer/coolant for another week and then on an as-needed basis. Their family has noticed that the subject has become less withdrawn, more engaging, and interested in their surroundings.
The subject volunteered for a trial with GlyOiPr. They were given a NasoNeb® machine and a plastic squeeze bottle containing 50 mL of GlyOiPr at 3 mg/mL suspended in 1% ethanol/2% polysorbate 80. They learned how to load the canister and activate the pump. Then, they were instructed to rinse their nose thoroughly first thing in the morning and then use the Nebulizer at 5 sec per nostril to deliver the solution. The procedure was to be repeated at 2 hours and 5 hours later to total three daily activations. The subject was interviewed after dosing for three days. They said breathing was much easier at night after the dosing, and they slept well. Nasal secretions were still present but less in volume. […] They were encouraged to use the Nebulizer as needed but not to exceed three daily doses. Three weeks after the start of the experiment, they reported that they were in complete control of their rhinitis. They would do a single dose at night before sleep and one in the morning when needed. They no longer felt congested, and the headaches were gone. The slimy phlegm in the nostrils was gone, and crusting was absent. Their nose felt clean. Their social life improved.
Their main complaint was episodes at night when they would wake up and not be able to breathe comfortably. Sleep apnea and lung disorders were ruled out, and the diagnosis was rhinosinusitis. This was confirmed by a computerized tomography scan and endoscopic examination by a qualified ENT specialist. They agreed to test the preferred embodiments GlyOnPr, GlyOiPr, D-Ala-OnPr, and D-Ala-OiPr systematically, one after the other.

For test [6], the target named is T1, hTRPM8 channel (Homo sapiens, UniProt Q7Z2W7).
T1 construct: host or cells: CHO cells
T1 sequence (Q7Z2W7 whole entry): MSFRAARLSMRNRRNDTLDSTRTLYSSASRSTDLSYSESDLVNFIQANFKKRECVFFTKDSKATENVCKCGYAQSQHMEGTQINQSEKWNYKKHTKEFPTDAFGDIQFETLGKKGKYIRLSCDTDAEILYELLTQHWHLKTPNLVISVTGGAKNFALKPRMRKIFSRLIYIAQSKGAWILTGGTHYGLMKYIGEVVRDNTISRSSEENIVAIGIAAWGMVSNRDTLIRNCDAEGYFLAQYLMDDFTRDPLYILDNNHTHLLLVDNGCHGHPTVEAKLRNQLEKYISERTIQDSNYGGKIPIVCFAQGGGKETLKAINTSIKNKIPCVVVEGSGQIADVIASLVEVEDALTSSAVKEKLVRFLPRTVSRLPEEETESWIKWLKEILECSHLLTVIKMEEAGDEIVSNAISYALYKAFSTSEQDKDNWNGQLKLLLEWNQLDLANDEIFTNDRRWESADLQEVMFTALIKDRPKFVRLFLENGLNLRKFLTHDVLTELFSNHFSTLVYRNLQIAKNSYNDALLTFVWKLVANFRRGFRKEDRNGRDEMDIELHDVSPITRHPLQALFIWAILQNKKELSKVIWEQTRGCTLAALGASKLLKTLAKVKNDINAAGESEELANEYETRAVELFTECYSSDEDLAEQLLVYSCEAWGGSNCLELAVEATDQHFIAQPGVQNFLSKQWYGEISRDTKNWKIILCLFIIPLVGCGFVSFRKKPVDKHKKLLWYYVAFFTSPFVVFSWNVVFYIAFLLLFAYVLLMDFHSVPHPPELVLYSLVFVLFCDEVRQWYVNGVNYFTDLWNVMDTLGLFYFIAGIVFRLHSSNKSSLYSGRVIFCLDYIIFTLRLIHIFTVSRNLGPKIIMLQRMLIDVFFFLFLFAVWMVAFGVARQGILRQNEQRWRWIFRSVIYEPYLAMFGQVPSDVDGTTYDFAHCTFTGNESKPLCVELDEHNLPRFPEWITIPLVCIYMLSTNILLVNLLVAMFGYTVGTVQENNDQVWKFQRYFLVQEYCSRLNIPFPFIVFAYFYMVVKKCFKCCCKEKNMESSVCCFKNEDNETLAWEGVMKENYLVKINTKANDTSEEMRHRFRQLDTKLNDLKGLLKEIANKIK
In words: TRPM8 receptor assay, calcium entry (Fluo-8, FLIPR) in transfected CHO cells. The format is cell-based. As to conditions: for EC50: CHO cells transfected with hTRPM8, Fluo-8 calcium kit, FLIPR; for Potency Relative to L-menthol: ratio of TRPM8 EC50 values, menthol = 1.0. An excerpt: FIG. 4. Agonist activities of TRPM8 analogs. […] The relative fluorescence (RF) unit on the ordinate represents calcium entry into transfected cells. […] The structures of these compounds are in Table 4.
The applicant has synthesized and examined a series of p-menthanecarboxamides conjugated to amino acid esters. […] This class of molecules is called N-alkylcarbonyl-amino acid esters. GlyOiPr is a p-menthanecarboxamide conjugate of glycine isopropyl (iPr) ester. It is similar in structure to WS-5, a cooling agent used as a food additive. WS-5 is the p-menthane-glycine ethyl (Et) ester, or GlyOEt. […] These in vitro effects were measured in CHO cells transfected with the hTRPM8 channel. Receptor activity was quantified using a Fluo-8 calcium kit and a Fluorescence Imaging Plate Reader ([…]™).

[7] abbreviates: Table 6, cooling duration, keratinized skin.

With `O=C1NC(c2cccc([N+](=O)[O-])c2)=CCN1c1ccccc1O` [icilin, 1-[2-hydroxy]-4-[3-nitrophenyl]-1,2,3,6-tetrahydropyrimidine-2-one, reference compound], in test [1], the “Sensory effects after delivery into the nasal cavity” value (shortened to “Sensory effects”) is reported as “Difficult to form a homogeneous suspension, causes systemic cooling at higher doses”.
With `CCOC(=O)C(C)NC(=O)[C@@H]1C[C@H](C)CC[C@H]1C(C)C` (stereo partly drawn) [L-Ala-OnPr], the “Philtrum Skin” value in test [2] (setting [7]) was 22 min. Further, the “Eyelids/Ocular Surface” value in test [3] was 10 min. Also, the “Chili-Pepper Sauce Test” value in test [4] is recorded as 0.
With `CCCOC(=O)[C@@H](C)NC(=O)[C@@H]1C[C@H](C)CC[C@H]1C(C)C` [D-Ala-OnPr, (R)-2-[((1R,2S,5R)-2-isopropyl-5-methyl-cyclohexanecarbonyl)-amino]-propionic acid n-propyl ester], in test [2] (setting [7]), the “Philtrum Skin” value turned out to be 108 min. Further, the “Eyelids/Ocular Surface” value in test [3] is reported as 65 min. In test [1], the “Sensory effects” value is recorded as “Strong penetrating cool at 3 mg/mL. Excellent for viral ARS”. In test [5], the “Relief of stuffiness and breathing” value is “provided relief”.
Consider `COC(=O)CNC(=O)[C@@H]1C[C@H](C)CC[C@H]1C(C)C` [GlyOMe], for which, in test [6], the concentration for a half-maximal effect (EC50) worked out at 500 nM and the “Potency Relative to L-menthol” value is on record as 7.6. Besides, in test [2] (Table 7, Gly esters), the “Philtrum Skin” value came to 10 min. Moreover, the “Ocular Surface” value in test [3] (Table 7, Gly esters) turned out to be 5 min.
Turning to `CC(C)[C@@H]1CC[C@@H](C)C[C@H]1C(=O)NCCc1ccccn1` [FEMA 4549, (1R,2S,5R)-N-(2-(pyridin-2-yl)ethyl)-3-p-menthanecarboxamide, reference compound], in test [1], the “Sensory effects” value is “Although potent on TRPM8 receptor, slow onset and absence of refreshing cooling”.
Regarding `CCCCOC(=O)C(C)NC(=O)[C@@H]1C[C@H](C)CC[C@H]1C(C)C` (stereo partly drawn) [D-Ala-OnBu], in test [6], the 50% effective concentration (EC50) was determined as 1030 nM and the “Potency Relative to L-menthol” value is on record as 3.7. The “Philtrum Skin” value in test [2] (setting [7]) was 80 min. In addition, in test [3], the “Eyelids/Ocular Surface” value stood at 40 min. Further, in test [4], the “Chili-Pepper Sauce Test” value was 0.
With `COC(=O)C(C)NC(=O)[C@@H]1C[C@H](C)CC[C@H]1C(C)C` (stereo partly drawn) [D-Ala-OMe], in test [6], the concentration for a half-maximal effect (EC50) worked out at 590 nM and the “Potency Relative to L-menthol” value was determined as 6.4. For the same compound, the “Philtrum Skin” value in test [2] (setting [7]) stood at 77 min. Besides, the “Eyelids/Ocular Surface” value in test [3] is 120 min.
As for `CCOC(=O)[C@@H](C)NC(=O)[C@@H]1C[C@H](C)CC[C@H]1C(C)C` [D-Ala-OEt, (R)-2-[((1R,2S,5R)-2-isopropyl-5-methyl-cyclohexanecarbonyl)-amino]-propionic acid ethyl ester], in test [6], the EC50 stood at 270 nM and the “Potency Relative to L-menthol” value worked out at 14.0. Moreover, the “Philtrum Skin” value in test [2] (setting [7]) is reported as 103 min. For the same compound, the “Eyelids/Ocular Surface” value in test [3] is reported as 180 min. Besides, in test [1], the “Cooling duration in the nasal cavity” value is listed as about 15 min and the “Sensory effects” value is listed as “Bitter taste, causes coughing”.
Consider `CCOC(=O)C(C)NC(=O)[C@@H]1C[C@H](C)CC[C@H]1C(C)C` (stereo partly drawn) [L-Ala-OnBu], for which the “Philtrum Skin” value in test [2] (setting [7]) was determined as 0 min. The “Eyelids/Ocular Surface” value in test [3] is 0 min. Besides, in test [4], the “Chili-Pepper Sauce Test” value was 0.
In the case of `CCOC(=O)[C@H](C)NC(=O)[C@@H]1C[C@H](C)CC[C@H]1C(C)C` [L-Ala-OEt, (S)-2-[((1R,2S,5R)-2-isopropyl-5-methyl-cyclohexanecarbonyl)-amino]-propionic acid ethyl ester], in test [6], the EC50 is 24000 nM and the “Potency Relative to L-menthol” value came out at 0.2. Further, the “Philtrum Skin” value in test [2] (setting [7]) was 34 min. Also, in test [3], the “Eyelids/Ocular Surface” value is 0 min. In addition, in test [4], the “Chili-Pepper Sauce Test” value was 0. Besides, the “Sensory effects” value in test [1] is “Very little cooling, low potency on TRPM8, good only as negative control”.
With `CCOC(=O)C(C)NC(=O)[C@@H]1C[C@H](C)CC[C@H]1C(C)C` (stereo partly drawn) [L-Ala-OiPr], in test [2] (setting [7]), the “Philtrum Skin” value was found to be 27 min. The “Eyelids/Ocular Surface” value in test [3] was 15 min. In test [4], the “Chili-Pepper Sauce Test” value amounted to 0.
